Laboratory results reported in patent US20170050961A1, “IMIDAZO[1,2-A]PYRIDINES AS SOLUBLE GUANYLATE CYCLASE STIMULATORS FOR THE TREATMENT OF CARDIOVASCULAR DISEASES” (BAYER PHARMA AKTIENGESELLSCHAFT, priority 2014, published 2017).

Target: T1, recombinant guanylate cyclase reporter cell line (Rattus norvegicus, UniProt P19686+P20595)
T1 construct: expressed in transfected cells
T1 sequence (P19686 1-690): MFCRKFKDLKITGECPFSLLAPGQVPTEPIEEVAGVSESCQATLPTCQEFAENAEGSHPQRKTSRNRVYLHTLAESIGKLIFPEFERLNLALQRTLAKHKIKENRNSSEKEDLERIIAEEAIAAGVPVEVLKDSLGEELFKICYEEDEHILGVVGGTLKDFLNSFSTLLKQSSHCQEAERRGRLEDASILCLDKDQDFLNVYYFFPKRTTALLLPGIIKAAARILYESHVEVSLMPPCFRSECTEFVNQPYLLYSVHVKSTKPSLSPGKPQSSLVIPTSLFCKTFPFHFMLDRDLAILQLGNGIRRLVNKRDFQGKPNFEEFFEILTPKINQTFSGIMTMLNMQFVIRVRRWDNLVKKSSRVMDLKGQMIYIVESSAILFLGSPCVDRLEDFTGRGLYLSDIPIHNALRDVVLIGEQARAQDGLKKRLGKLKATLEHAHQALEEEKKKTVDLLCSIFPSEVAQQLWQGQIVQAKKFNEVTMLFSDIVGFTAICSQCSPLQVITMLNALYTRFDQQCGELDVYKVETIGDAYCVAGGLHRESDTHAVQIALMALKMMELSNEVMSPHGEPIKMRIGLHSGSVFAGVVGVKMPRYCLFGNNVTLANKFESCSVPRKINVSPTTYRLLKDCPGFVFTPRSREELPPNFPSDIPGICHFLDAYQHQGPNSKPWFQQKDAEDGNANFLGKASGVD
T1 sequence (P20595 1-619): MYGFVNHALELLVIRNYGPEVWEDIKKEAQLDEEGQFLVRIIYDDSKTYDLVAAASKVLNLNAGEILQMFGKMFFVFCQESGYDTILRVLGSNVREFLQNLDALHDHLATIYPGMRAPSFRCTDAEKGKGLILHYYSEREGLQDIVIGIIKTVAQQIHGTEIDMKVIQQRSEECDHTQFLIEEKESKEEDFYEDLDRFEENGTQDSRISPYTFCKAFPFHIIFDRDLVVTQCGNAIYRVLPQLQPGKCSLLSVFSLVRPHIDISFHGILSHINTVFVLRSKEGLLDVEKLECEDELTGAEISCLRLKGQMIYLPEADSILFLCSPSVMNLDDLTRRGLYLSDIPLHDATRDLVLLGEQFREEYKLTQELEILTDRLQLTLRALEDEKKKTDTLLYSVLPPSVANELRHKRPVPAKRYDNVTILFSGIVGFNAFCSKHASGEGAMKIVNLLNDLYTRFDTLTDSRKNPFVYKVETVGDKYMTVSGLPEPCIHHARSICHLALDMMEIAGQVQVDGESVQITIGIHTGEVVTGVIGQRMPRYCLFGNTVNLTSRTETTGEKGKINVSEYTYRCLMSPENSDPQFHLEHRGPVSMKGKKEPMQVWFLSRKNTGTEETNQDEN
Assay: Effect on a recombinant guanylate cyclase reporter cell line
Type: cell-based
Details: MEC=minimum effective concentration; in some cases as mean values for individual determinations
Protocol: B-2. Effect on a Recombinant Guanylate Cyclase Reporter Cell Line
The cellular activity of the compounds of the invention is determined using a recombinant guanylate cyclase reporter cell line, as described in F. Wunder et al., Anal Biochem. 339, 104-112 (2005).
Representative MEC values (MEC=minimum effective concentration) for the compounds of the invention are shown in the table below (in some cases as mean values for individual determinations): […]

Structure (SMILES): COc1nc2c(OCc3c(F)cccc3F)cc(C)cn2c1C(=O)NCC(C)(N)CCC(F)(F)F (single isomer, unassigned; enantiomer b) [Example 27, ent-N-(2-Amino-5,5,5-trifluoro-2-methylpentyl)-8-[(2,6-difluorobenzyl)oxy]-2-methoxy-6-methylimidazo[1,2-a]pyridine-3-carboxamide (enantiomer B)]
- MEC: 3.0 µM

Structure (SMILES): CCC(C)(N)CNC(=O)c1c(C)nc2c(OCc3c(F)cccc3F)cc(C3CC3)cn12.Cl (racemic) [Example 2, rac-N-(2-Amino-2-methylbutyl)-6-cyclopropyl-8-[(2,6-difluorobenzyl)oxy]-2-methylimidazo[1,2-a]pyridine-3-carboxamide hydrochloride]
- MEC: 1.0 µM

Structure (SMILES): Cc1cc(OCc2c(F)cccc2F)c2nc(Cl)c(C(=O)NCC(C)(N)CCC(F)(F)F)n2c1 (single isomer, unassigned; enantiomer b) [Example 19, ent-N-(2-Amino-5,5,5-trifluoro-2-methylpentyl)-2-chloro-8-[(2,6-difluorobenzyl)oxy]-6-methylimidazo[1,2-a]pyridine-3-carboxamide (enantiomer B)]
- MEC: 0.07 µM

Structure (SMILES): Cc1nc2c(OCc3ncccc3F)cc(Cl)cn2c1C(=O)NCC(C)(N)CCC(F)(F)F (single isomer, unassigned; enantiomer b) [Example 10, ent-N-(2-Amino-5,5,5-trifluoro-2-methylpentyl)-6-chloro-8-[(3-fluoropyridin-2-yl)methoxy]-2-methylimidazo[1,2-a]pyridine-3-carboxamide (enantiomer B)]
- MEC: 0.3 µM

Structure (SMILES): CCC(C)(N)CNC(=O)c1c(Cl)nc2c(OCc3c(F)cccc3F)cc(C)cn12 (single isomer, unassigned; enantiomer b) [Example 22, ent-N-(2-Amino-2-methylbutyl)-2-chloro-8-[(2,6-difluorobenzyl)oxy]-6-methylimidazo[1,2-a]pyridine-3-carboxamide (enantiomer B)]
- MEC: 0.1 µM

Structure (SMILES): Cc1cc(OCc2c(F)cccc2F)c2nc(C)c(C(=O)NCC(C)(N)CC[Si](C)(C)C)n2c1 (single isomer, unassigned; enantiomer a) [Example 13, ent-N-[2-Amino-2-methyl-4-(trimethylsilyl)butyl]-8-[(2,6-difluorobenzyl)oxy]-2,6-dimethylimidazo[1,2-a]pyridine-3-carboxamide (enantiomer A)]
- MEC: 0.3 µM

Structure (SMILES): CCCC(C)(N)CNC(=O)c1c(Cl)nc2c(OCc3c(F)cccc3F)cc(C)cn12 (single isomer, unassigned; enantiomer a) [Example 24, ent-N-(2-Amino-2-methylpentyl)-2-chloro-8-[(2,6-difluorobenzyl)oxy]-6-methylimidazo[1,2-a]pyridine-3-carboxamide (enantiomer A)]
- MEC: 0.1 µM

Structure (SMILES): CCC(C)(N)CNC(=O)c1c(OC)nc2c(OCc3c(F)cccc3F)cc(C)cn12 (single isomer, unassigned; enantiomer b) [Example 26, ent-N-(2-Amino-2-methylbutyl)-8-[(2,6-difluorobenzyl)oxy]-2-methoxy-6-methylimidazo[1,2-a]pyridine-3-carboxamide (enantiomer B)]
- MEC: 2.0 µM
